Measurements as given in patent US20090220429A1, “METHOD AND A SYSTEM FOR ASSESSING NEUROLOGICAL CONDITIONS” (METIS CURA EHF, priority 2005, published 2009).

How the values were obtained:
[1] = tested on: subjects with dementia of the Alzheimer's type (AD group) and healthy control group; assay: Clinical trial: EEG recorded before and after intravenous scopolamine as probe compound, feature pair classification of AD group versus control group; format: in vivo, human; details: for number of feature pair classifiers scoring 80% or better: features 33-48 (ratios before/after administration), P3-P4 montage, leave one out
From the text: The effectiveness of the invention has been verified in a clinical trial. The participants in the trial were divided in two groups. One group consisted of 10 elderly subjects that have been diagnosed with, mild to moderate, dementia of the Alzheimer's type (AD group). A second age-matched group of 10 healthy individuals (i.e. non-AD individuals) was included as a control group.
The AD-group of participants consisted of patients in follow-up surveillance in the memory clinic at the Department of Geriatrics in Landspitali University Hospital, Reykjavik, Iceland. The group consisted of patients with Alzheimer's Disease (AD) (N=10) according to ICD-10. The other group consisted of normal Control participants (N=10), who were recruited from relatives of demented patients attending a day-care center.
To be eligible for participation in the study the subjects had to be in the range of 60-80 years of age, in good general health as determined by standard physical examination, with no acute changes on ECG. Exclusion criteria included smoking or any other use of tobacco (also excluding those that had stopped tobacco use about a week or less prior to the trial), treatment with neuroleptics and benzodiazepines, impaired liver- or kidney function, hypersensitivity to scopolamine, indication of drug, alcohol or medical abuse, glaucoma or possibility of raised intraocular pressure with administration of scopolamine. Prior to the screening visit the subjects were interviewed by phone. The AD subjects were selected from hospital records. All the AD patients in the follow-up program at the Memory Clinic were being treated with anti-dementia drugs. To minimize the variation between the subjects in the trial, the participants in the AD-group were selected from patients that were being treated with the same cholinesterase-inhibitor, Reminyl® (galantamine HBr).
Electroencephalographic neurophysiological signals were recorded from each of the subjects. The recording protocol was divided into two parts 105, 107 or sessions which were identical. In between the sessions the provided substance 101 substance scopolamine was administered intravenously, see FIG. 10. Within each section a two-minute period was recorded while the subject was instructed to be at rest with eyes closed. The data collected from these periods were used to estimate the individual features. The substance scopolamine was chosen based on its effects perturbing biophysical pathways that are known to deteriorate in subjects suffering from Alzheimer's disease. […]
The electroencephalographic signals were recorded using computerized measuring equipment, see FIG. 11. […]
These features were evaluated using a part of the first section where the subjects were at rest with eyes closed. […]

[2] = tested on: early DAT subjects compared to controls; details: 1-3 min post-injection; no significant group difference at baseline; cited from earlier work

CN1[C@@H]2C[C@@H](OC(=O)[C@H](CO)c3ccccc3)C[C@H]1[C@@H]1O[C@@H]12 [scopolamine]
classification performance ([1]; 3-NN scheme, FIG. 15, response feature set versus pre-administration feature set): substantially enhanced classification performance
number of feature pair classifiers scoring 80% or better ([1]; 3-NN scheme, 4 with pre-administration features 1-16): 29
number of feature pair classifiers scoring 80% or better ([1]; SVM classification scheme, 5 with pre-administration features 1-16): 23
separation between the AD and control groups for a feature pair ([1]; ratio of feature values pre- and post-administration (FIG. 14) versus features before administration (FIG. 13)): significantly better separation between the groups

CCCC(C)C1(CC)C(=O)NC(=S)NC1=O (centres unmarked) [thiopental]
beta power response in the frontal region, early DAT subjects compared to controls [2]: significantly smaller beta power response
